Compound	melting point [°C]
CCCCC/C=C/CC1CC(=O)N(c2cc(Cc3n[nH]c(=O)c4ccccc34)ccc2F)C1=O (stereo not shown) [Example 28, 1-[2-fluoro-5-(4-oxo-3,4-dihydrophthalazin-1-ylmethyl)phenyl]-3-oct-2-enylpyrrolidine-2,5-dione]	138 to 141
CCC/C=C/CC1CC(=O)N(c2cc(Cc3n[nH]c(=O)c4ccccc34)ccc2F)C1=O (stereo not shown) [Example 29, 1-[2-fluoro-5-(4-oxo-3,4-dihydrophthalazin-1-ylmethyl)phenyl]-3-hex-2-enylpyrrolidine-2,5-dione]	146 to 149
O=C1CC2(CCCC2)C(=O)N1c1cc(Cc2n[nH]c(=O)c3ccccc23)ccc1F [Example 32, 2-[2-fluoro-5-(4-oxo-3,4-dihydrophthalazin-1-ylmethyl)phenyl]-2-azaspiro[4.4]nonane-1,3-dione]	215 to 220
O=C(N[C@H]1CC(=O)N(c2cc(Cc3n[nH]c(=O)c4ccccc34)ccc2F)C1=O)OCc1ccccc1 [Example 35, (S)-3-benzyloxycarbonylamino-1-[2-fluoro-5-(4-oxo-3,4-dihydrophthalazin-1-ylmethyl)phenyl]pyrrolidine-2,5-dione]	121 to 127
O=C1CC(c2ccccc2)C(=O)N1c1cc(Cc2n[nH]c(=O)c3ccccc23)ccc1Cl (stereo not shown) [Example 39, 1-[2-chloro-5-(4-oxo-3,4-dihydrophalazin-1-ylmethyl)phenyl]-3-phenylpyrrolidine-2,5-dione]	131 to 135

Next, values leading:

melting point [°C]	Compound
146 to 149	CCCCCC/C=C/CC1CC(=O)N(c2cc(Cc3n[nH]c(=O)c4ccccc34)ccc2F)C1=O (stereo not shown) [Example 30, 1-[2-Fluoro-5-(4-oxo-3,4-dihydrophthalazin-1-ylmethyl)phenyl]-3-non-2-enylpyrrolidine-2,5-dione]
229 to 230	O=C1C2CC2C(=O)N1c1cc(Cc2n[nH]c(=O)c3ccccc23)ccc1Cl (stereo not shown) [Example 41, 3-[2-chloro-5-(4-oxo-3,4-dihydrophthalazin-1-ylmethyl)phenyl]-3-azabicyclo[3.1.0]hexane-2,4-dione]
